Experimental data reported in US6762185B1, “Compounds useful for treatment of cancer, compositions containing the same, and methods of their use” (Choongwae Pharma Corporation, priority 2002, dated 2004).

Legend:
SW480 cells [1] = assay: Bioassay for the measurement of IC50 against SW480 cells (TOPFlash/pRL-null luciferase); assay type: cell-based; details: Homo sapiens, 24 hrs treatment, firefly and renilla luciferase activities, read-out: IC50 against SW480 cell growth
Procedure: FIG. 8. Measurement of IC50 of TCF4 compound for SW480 cells. Cell growth inhibition on SW480 cells is measured at various concentrations of TCF4 compound in order to obtain the IC50 value. Specifically, the degree of inhibition in firefly and renilla luciferase activities by TCF4 compound was determined. […] Detailed procedures are the same as disclosed in Example 8.
SW480 cells were transfected with the usage of Superfect™ transfect reagent (Qiagen, 301307). Cells were trypsinized briefly 1 day before transfection and plated on 6 well plate (5×10^5 cells/well) so that they were 50-80% confluent on the day of transfection. Four microgram (TOPFlash) and one microgram (pRL-null) of DNAs were diluted in 150 μl of serum-free medium, and 30 μl of Superfect™ transfect reagent was added. The DNA-Superfect mixture was incubated at room temperature for 15 min, after that 1 ml of 10% FBS DMEM was added to this complex for an additional 3 hr of incubation. While complexes were forming, cells were washed with PBS twice without antibiotics. The DNA-Superfect™ transfect reagent complexes were applied to the cells before incubating at 37° C. at 5% CO2 for 3 h. After incubation, recovery medium with 10% FBS was added to bring the final volume to 1.18 ml. After 3 hr incubation, the cells were harvested and reseeded to 96 well plate (3×10^4 cells/well). […]

SW480 cells [2] = assay: Combination with 5-FU tested against SW480 cell lines; assay type: cell-based
Procedure: It has been known from previous art that 5-FU [Fluorouracil; 5-fluoro-2,4(1H, 3H)-pyrimidinedione] can induce apoptosis in cultured oral cancer cells (D. Tong et al., Oral Oncology 36, 2000 236-241). Further, it is also known that colon cancer has a sensitivity to 5-FU (D. Arango et al., Cancer Research 61, 2001 4910-4915). In the present invention, therefore, the combination of 5-FU having established anti-cancer activity and the compounds of formula (I) of the present invention is prepared and tested against SW480 cell lines. […] Therefore, it is yet another aspect of the present invention to provide a method of treating cancer, which comprises administering to a subject a safe and effective amounts of the compound having formula (I) of claim 1 together with other anti-cancer agent such as 5-Fu.

[3] = tested on: CBP-mediated transcriptional activation; assay: CBP-mediated transcriptional activation, pTOPFlash with CBP and/or β-catenin cotransfection in SW480 cells; assay type: cell-based; details: SW480 cells cotransfected with pTOPFlash
Procedure: FIG. 2. […] SW480 cells were cotransfected with 1.1 μg of the pTOPFlash reporter, and 0.8 μg […], in the presence or absence of TCF4 compound and CBP and/or β-catenin, which are present in various concentrations(1.1 to 3.3 μg), is shown to reverse the inhibiting action of TCF4 compound on CBP-mediated transcriptional activation.
In order to determine the inhibitory effect of TCF4 compound on CBP-mediated transcriptional activation, reporter plasmid pTOPFlash (1.1 μg), CBP expression vector (1.1 to 3.3 μg), wild type beta-catenin expression vector (1.1 to 3.3 μg) and pRL-null (0.8 μg) were cotransfected into SW480. Total amount of DNA was adjusted to 6.3 μg. After 24 hours incubation, TCF4 compound was added and cells were washed and luciferase activity was measured. Firefly luciferase activity was normalized to renilla luciferase activity (FIG. 2).

[4] = tested on: TCF4/β-catenin transcriptional pathway; assay: TCF4/β-catenin reporter gene assay (pTOPFlash luciferase) in SW480 cells; assay type: cell-based; details: 24 hours treatment, firefly normalized to renilla
Procedure: The compound having general formula (I) wherein R1 is 2-naphthyl and R2 is phenyl is used for this experiment (it is referred to as ‘TCF4 compound’ hereinafter). Each transfection was performed in duplicate and repeated at least three times. SW480 cells were transfected transiently with 4.0 μg firefly luciferase reporter plasmid (pTOPFlash) and 0.8 μg renilla luciferase reporter plasmid (pRL-null). Firefly luciferase activity was normalized to renilla luciferase activity.
SW480 cells were maintained in DMEM with 10% fetal bovine serum supplemented with non-essential amino acid and antibiotics. Transient transfections into SW480 cells were carried out by Superfect (Qiagen,301307). For TCF4/β-catenin reporter gene assay, 4 μg of pTOPFlash and 0.8 μg of pRL-null were cotransfected. After 24 hours of transfection, SW480 cells were treated with TCF4 compound at varying concentrations. Firefly luciferase and renilla luciferase activities were measured 24 hours after said TCF4 compound treatment, and the firefly luciferase activity was normalized to the renilla luciferase activity (FIG. 1).

SW480 cells [5] = assay: Soft agar cell growth and colony formation assay; assay type: cell-based; details: SW480 cells in soft agar, 8 days
Procedure: FIG. 7. Cell growth and colony formation assays. SW480 cells were treated with TCF4 compound. The resulting cells are placed in a soft agar plate and incubated at 37° C. in CO2 incubator for 8 days. Number of colonies were counted under microscope. Agar plates were prepared to contain 10% FBS, 2 mM L-glutamine, 0.1 mM non-essential amino acid, 1×pen/strep and 1.6% agarose for bottom layer and DMEM containing 10% FBS, 2 mM L-glutamine, 0.1 mM non-essential amino acid, 1×pen/strep for upper layer. TCF4 compound solution and upper layer solution containing agarose were mixed and SW480 cells were added and solidified. Plates were incubated 37° C. at CO2 incubator for 8 days after solidification at room temperature for 30 min and colonies were counted under microscope (FIG. 7).

CBP = target: T1, CBP (Homo sapiens, UniProt Q92793); assay: Binding of 14C-TCF4 compound to nuclear extracts of SW480 transfected with CBP or β-catenin; details: 14C-labelled compound, nuclear lysate of transfected SW480, 4° C., 18 hours
T1 construct: expressed in transfected cells; host or cells: SW480
T1 sequence (Q92793 whole entry): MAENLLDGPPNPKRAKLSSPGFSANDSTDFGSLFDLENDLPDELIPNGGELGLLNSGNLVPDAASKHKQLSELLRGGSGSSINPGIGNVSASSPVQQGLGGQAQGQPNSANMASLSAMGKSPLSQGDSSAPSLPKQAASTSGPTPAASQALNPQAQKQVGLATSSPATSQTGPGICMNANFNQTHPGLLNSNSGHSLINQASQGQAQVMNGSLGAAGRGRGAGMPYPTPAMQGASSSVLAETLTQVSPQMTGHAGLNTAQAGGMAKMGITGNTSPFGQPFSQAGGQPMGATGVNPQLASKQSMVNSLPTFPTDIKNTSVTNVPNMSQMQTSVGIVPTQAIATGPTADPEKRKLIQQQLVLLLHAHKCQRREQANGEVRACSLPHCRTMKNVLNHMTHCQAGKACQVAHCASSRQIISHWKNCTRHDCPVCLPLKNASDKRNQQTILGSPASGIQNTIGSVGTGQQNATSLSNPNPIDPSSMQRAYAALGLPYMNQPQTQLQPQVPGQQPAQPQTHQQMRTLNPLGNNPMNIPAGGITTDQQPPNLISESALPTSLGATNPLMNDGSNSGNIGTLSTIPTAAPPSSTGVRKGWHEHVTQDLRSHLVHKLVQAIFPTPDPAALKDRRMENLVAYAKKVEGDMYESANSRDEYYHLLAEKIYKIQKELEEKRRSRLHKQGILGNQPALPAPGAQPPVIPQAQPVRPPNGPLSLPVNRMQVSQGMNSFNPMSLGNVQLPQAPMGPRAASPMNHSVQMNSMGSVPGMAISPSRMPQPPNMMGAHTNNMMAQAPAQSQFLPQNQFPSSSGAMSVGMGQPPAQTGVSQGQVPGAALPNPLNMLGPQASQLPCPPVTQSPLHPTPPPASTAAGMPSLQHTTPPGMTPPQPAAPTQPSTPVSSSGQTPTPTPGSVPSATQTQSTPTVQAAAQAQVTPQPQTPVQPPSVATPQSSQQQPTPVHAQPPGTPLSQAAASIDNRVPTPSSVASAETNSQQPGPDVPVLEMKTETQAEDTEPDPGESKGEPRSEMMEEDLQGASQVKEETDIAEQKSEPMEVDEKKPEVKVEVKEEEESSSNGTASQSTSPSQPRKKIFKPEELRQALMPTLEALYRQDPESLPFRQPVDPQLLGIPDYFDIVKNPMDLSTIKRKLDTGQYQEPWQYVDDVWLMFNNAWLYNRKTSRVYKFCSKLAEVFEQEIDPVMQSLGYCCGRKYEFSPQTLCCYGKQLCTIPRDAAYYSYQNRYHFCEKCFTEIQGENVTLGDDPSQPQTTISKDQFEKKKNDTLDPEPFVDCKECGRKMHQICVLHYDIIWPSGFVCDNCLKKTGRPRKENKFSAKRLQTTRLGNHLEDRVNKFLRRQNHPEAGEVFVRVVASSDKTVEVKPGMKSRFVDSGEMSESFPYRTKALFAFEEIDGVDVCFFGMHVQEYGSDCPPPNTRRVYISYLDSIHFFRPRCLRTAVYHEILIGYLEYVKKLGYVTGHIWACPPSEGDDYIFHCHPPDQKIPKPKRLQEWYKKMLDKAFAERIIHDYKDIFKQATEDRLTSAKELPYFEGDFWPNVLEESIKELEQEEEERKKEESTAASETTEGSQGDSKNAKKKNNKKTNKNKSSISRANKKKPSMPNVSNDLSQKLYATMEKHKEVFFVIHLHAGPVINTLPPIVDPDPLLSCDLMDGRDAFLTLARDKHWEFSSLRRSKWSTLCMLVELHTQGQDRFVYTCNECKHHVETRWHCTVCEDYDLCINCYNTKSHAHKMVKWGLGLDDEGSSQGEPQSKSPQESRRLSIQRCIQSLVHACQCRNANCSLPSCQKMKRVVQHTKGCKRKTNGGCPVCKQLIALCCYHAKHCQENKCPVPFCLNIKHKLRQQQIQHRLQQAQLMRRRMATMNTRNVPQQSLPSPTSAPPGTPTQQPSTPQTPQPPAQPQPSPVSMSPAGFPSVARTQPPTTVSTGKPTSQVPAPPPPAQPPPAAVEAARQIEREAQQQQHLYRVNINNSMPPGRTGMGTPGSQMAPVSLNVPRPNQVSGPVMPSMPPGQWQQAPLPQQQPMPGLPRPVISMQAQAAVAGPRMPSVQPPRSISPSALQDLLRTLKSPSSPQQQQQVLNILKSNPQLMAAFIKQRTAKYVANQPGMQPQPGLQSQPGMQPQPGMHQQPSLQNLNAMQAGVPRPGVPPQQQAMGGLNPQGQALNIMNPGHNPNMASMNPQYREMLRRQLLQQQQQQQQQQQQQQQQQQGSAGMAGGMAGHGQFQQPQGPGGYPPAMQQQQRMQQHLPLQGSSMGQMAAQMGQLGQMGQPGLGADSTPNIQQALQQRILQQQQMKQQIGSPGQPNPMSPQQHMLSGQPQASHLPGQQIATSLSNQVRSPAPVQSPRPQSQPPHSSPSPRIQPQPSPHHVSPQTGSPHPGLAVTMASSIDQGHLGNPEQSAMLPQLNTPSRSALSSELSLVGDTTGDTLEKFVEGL
Procedure: FIG. 3. […] SW480 cells were transiently transfected with β-catenin or CBP expression plasmid. 48 hours after transfection, nuclear protein extracts were collected. 14C-Tcf4 was incubated with nuclear lysate.
Nuclear protein extracts from SW480 transfected with CBP expression vector or wild type β-catenin expression vector were collected using NE-PER Nuclear and Cytoplasmic Extraction Reagents (Pierce) and incubated with ^14C-TCF4 compound at 4° C. for 18 hours. Each samples were washed with Sephadex G-25 columns equilibrated with 5 mL of PBB (20 mM HEPES, pH 7.9, 60 mM NaCl, 6 mM MgCl2, 0.5 mM EDTA, 0.1% NP-40, 20% glycerol, 5 mM 2-ME, 1 mM PMSF) and protein samples eluted by centrifugation were transferred to a scintillation vial containing 2 mL of scintillation fluid. Radio activities were counted using scintillation counter (Beckman).

survivin = assay: Survivin expression in SW480 cells (RT-PCR and Western blot); assay type: cell-based, human
Procedure: FIGS. 5A and 5B. Inhibition of survivin expression by TCF4 compound in […]. FIG. 5A. Surviving mRNA (363 bp) level was assessed by RT-PCR in SW480 cell 24 hours after incubation 25 μM TCF4 compound. β-actin mRNA (564 bp) level is shown as an internal control. FIG. 5B. Survivin protein (MW 16,500) level was assessed by Western blots in SW480 using anti-survivin monoclonal antibody after TCF4 incubation with compound for 48 hrs.
Total RNA was isolated from SW480 cells treated with the TCF4 compound using Rneasy midi kit (Qiagen, Valencia, Calif., 75142). One microgram of RNA was used as a template for RT-PCR. The expression of survivin was evaluated with RT-PCR and Western blot. The primer used to detect fragments of the survivin gene was designed from published human sequences (Cancer Res., 2001, 62, 8664-8667). The sequences used were 5′-[…]-3′ and 5′-[…]-3′, which can give an amplified product of 363 bp. The RT-PCR reaction was processed by Access RT-PCR system (Promega A1260). (FIG. 5) Survivin 6E4 Monoclonal antibody (Cell signaling Technology, 2802) was used for Western blot of TCF4 compound treated SW480 cells. (FIG. 5B).

caspase-3 = assay: Caspase-3 activation in SW480 cells (Cbz-DEVD-R110 substrate); assay type: cell-based; details: SW480 cells treated 24 hours, dose dependent
Procedure: FIG. 6. TCF4 compound induces caspase-3 activation in a dose-dependent manner. SW480 cells were treated with TCF4 compound for 24 hours. Whole cell protein extracts were prepared and 100 μg aliquots of protein extracts were incubated with Cbz-DEVD-R110 substrate for 2 hours at 37° C. Relative fluorescence unit (RFU) was obtained by subtracting the unit values of the blank control from the experimental measured values. SW480 cells were treated with TCF4 compound for 24 hours, collected and washed with PBS, and lysed in 100 μl ice cold hypotonic lysis buffer which is commercially available (Promega). 100 μg of the cell extracts were incubated in reaction buffer containing Cbz-DEVD-R110 (caspase-3 substrate: Promega) at 37° C. for 2 hours (FIG. 6). It is clear the FIG. 6 that caspase-3 activity was stimulated by the presence of the TCF4 compound, in a dose dependent manner.

O=C1[C@H](Cc2ccc(O)cc2)N2C(=O)CCN(C(=O)NCc3ccccc3)[C@H]2CN1Cc1cccc2ccccc12 [TCF4 compound, 6-(4-Hydroxy-benzyl)-8-naphthalen-1-ylmethyl-4-oxo-hexahydro-pyrazino[1,2-α]pyrimidine-1-carboxylic Acid Benzylamide]
IC50 (SW480 cells [1]): ~8.07 µM | inhibition of cancer cell growth in combination with 5-FU (SW480 cells [2]): remarkable effect for inhibiting cancer cell growth | CBP-mediated transcriptional activation [3]: inhibits CBP-mediated transcriptional activation | transcription of the TCF4 responsive reporter gene luciferase [4]: inhibits the transcription of the TCF4 responsive reporter gene luciferase in a dose-dependent manner | cell growth and colony formation (SW480 cells [5]): correlation between the dose of TCF4 compound and the inhibition of cell growth | binding to CBP (CBP): Specific binding | survivin mRNA expression level (survivin; RT-PCR, 25 μM, 24 hours): Inhibits | survivin protein expression level (survivin; Western blot, 48 hrs): Inhibits | caspase-3 activity (caspase-3): stimulated
